Source: patent US8993564B2, “7-azaindole derivatives suitable for treatment of cancers” (Merck Patent GmbH, priority 2011, dated 2015)

Columns and labels:
PDK1 = molecular target: T1, PDK1 (Homo sapiens, UniProt O15530); assay: Test for the inhibition of PDK1 (flashplate, 33P-ATP), enzymatic; format: biochemical; conditions: prior art compounds vs compounds according to the invention
T1 construct: His6 (N)
T1 sequence (O15530 51-556 limits assumed): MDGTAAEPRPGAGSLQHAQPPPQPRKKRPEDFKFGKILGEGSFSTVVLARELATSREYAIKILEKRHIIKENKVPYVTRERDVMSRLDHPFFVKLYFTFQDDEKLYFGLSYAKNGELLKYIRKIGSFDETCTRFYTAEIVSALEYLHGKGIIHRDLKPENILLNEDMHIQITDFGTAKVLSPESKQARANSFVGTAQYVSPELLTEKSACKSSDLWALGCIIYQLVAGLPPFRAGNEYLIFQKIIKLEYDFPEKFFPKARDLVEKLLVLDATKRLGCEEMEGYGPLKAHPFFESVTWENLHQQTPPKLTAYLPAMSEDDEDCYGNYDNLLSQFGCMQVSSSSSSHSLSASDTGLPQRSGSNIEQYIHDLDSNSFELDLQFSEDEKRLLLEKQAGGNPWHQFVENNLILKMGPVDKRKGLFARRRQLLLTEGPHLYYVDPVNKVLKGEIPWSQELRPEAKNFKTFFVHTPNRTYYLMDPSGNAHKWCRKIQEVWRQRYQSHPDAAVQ
Procedure: 4.0 Test for the Inhibition of PDK1
The experimental batches are carried out in a flashplate system with 384 wells/microtitration plate.
In each case, the PDK1 sample His6-PDK1(1-50)(3.4 nM), the PDK1 substrate biotin-bA-bA-[…] (400 nM), 4 μM ATP (with 0.2 μCi of ^33P-ATP/well) and the test substance in 50 μl of conventional experimental solution per well are incubated at 30° C. for 60 min. The test substances are employed in corresponding concentrations (if desired in a dilution series). The control is carried out without test substance. The reaction is stopped using standard methods and washed. The activity of the kinase is measured via the incorporated radioactivity in top count. In order to determine the non-specific kinase reaction (blank value), the experimental batches are carried out in the presence of 100 nM staurosporine.
The radioactivity (decompositions per minute) of the blank value (no use of test substance in the presence of staurosporine) is subtracted from all other radioactivity values. The controls (kinase activity without test substance) are set equal to 100 percent and all other radioactivity values (after subtracting the blank value) are expressed set in relation thereto (for example in % of the control).
IC50 values (50% inhibition) are determined with the aid of statistics programmes, such as, for example, RS1.

Compound	melting point [°C]	inhibition of PDK1 (enzymatic), activity compared with the compounds according to the invention (PDK1)
Cn1cc(-c2cnc3[nH]cc(-c4nnc(Nc5ccccc5F)o4)c3c2)cn1 [Compound 60]	295 to 297	–
Cn1cc(-c2cnc3[nH]cc(-c4nnc(Nc5ccccc5)o4)c3c2)cn1 [Compound 75, {5-[5-(1-Methyl-1H-pyrazol-4-yl)-1H-pyrrolo[2,3-b]pyridin-3-yl]-1,3,4-oxadiazol-2-yl}phenylamine]	324 to 326	–
COc1ccccc1CNc1nnc(-c2c[nH]c3ncc(-c4cnn(C)c4)cc23)o1 [Compound 63, (2-Methoxybenzyl)-{5-[5-(1-methyl-1H-pyrazol-4-yl)-1H-pyrrolo[2,3-b]-pyridin-3-yl]-1,3,4-oxadiazol-2-yl}-amine]	253 to 254	–
COc1cc(Nc2nnc(-c3c[nH]c4ncccc34)o2)cc(OC)c1 [Compound 89, (3,5-Dimethoxyphenyl)-[5-(1H-pyrrolo[2,3-b]pyridin-3-yl)-1,3,4-oxadiazol-2-yl]amine]	–	lower activity
Cn1cc(-c2cnc3[nH]cc(-c4nnc(NCc5ccc6c(c5)OCO6)o4)c3c2)cn1 [Compound 82, Benzo-1,3-dioxol-5-ylmethyl-{5-[5-(1-methyl-1H-pyrazol-4-yl)-1H-pyrrolo[2,3-b]pyridin-3-yl]-1,3,4-oxadiazol-2-yl}amine]	281 to 283	–
COc1cccc(CNc2nnc(-c3c[nH]c4ncc(-c5cn[nH]c5)cc34)o2)c1 [Compound 90, (3-Methoxybenzyl)-{5-[5-(1H-pyrazol-4-yl)-1H-pyrrolo [2,3-b]pyridin-3-yl]-1,3,4-oxadiazol-2-yl}amine]	–	lower activity
CCOc1ccccc1Nc1nnc(-c2c[nH]c3ncc(-c4cnn(C)c4)cc23)o1 [Compound 62, (2-Ethoxyphenyl)-{5-[5-(1-methyl-1H-pyrazol-4-yl)-1H-pyrrolo[2,3-b]-pyridin-3-yl]-1,3,4-oxadiazol-2-yl}-amine]	274 to 275	–
COc1cccc(CNc2nnc(-c3c[nH]c4ncccc34)o2)c1 [Compound 95, (3-Methoxybenzyl)-[5-(1H-pyrrolo-[2,3-b]pyridin-3-yl)-1,3,4-oxadiazol-2-yl]amine]	–	lower activity
c1cncc(CNc2nnc(-c3c[nH]c4ncccc34)o2)c1 [Compound 88, Pyridin-3-ylmethyl-[5-(1H-pyrrolo-[2,3-b]pyridin-3-yl)-1,3,4-oxadiazol-2-yl]amine]	–	lower activity
